In US10889609B2, “Mannitol-based amphipathic compound and use thereof” (Industry-University Cooperation Foundation Hanyang …, priority 2015, dated 2021):
Several values for one entry are separate records, joined by “and”; a condition that tells them apart may be missing. Identical values can stand only once.

Key:
[1] = Critical micellar concentration (CMC) by hydrophobic fluorescence stain diphenylhexatriene (DPH); type: physicochemical; conditions: aqueous solution
From the text: A method of measuring the CMC is not particularly limited, but the methods widely known in the related art may be used. For example, the CMC may be measured by a fluorescence detection method using diphenylhexatriene (DPH).
(§1) To determine characteristics of the MNAs of Preparative Example 1 to 10 synthesized according to the synthesis method of Example 1, the molecular weights (M.W.) and critical micellar concentrations (CMCs) of the MNAs and the hydrodynamic radii (Rh) of the formed micelles were measured.
(§2) Specifically, the critical micellar concentration (CMC) was measured using a hydrophobic fluorescence stain (diphenylhexatriene (DPH)), and the hydrodynamic radii (Rh) of the micelles formed by each of the preparations were measured by a dynamic light scattering (DLS) experiment. The measured results were compared to those of DDM that is a conventional amphipathic molecule (a detergent), and are listed in Table 1.

[2] = Hydrodynamic radius and size distribution of micelles by dynamic light scattering (DLS); type: physicochemical
From the text: A method of measuring the radius of the micelle is not particularly limited, but the methods widely known in the related art may be used. For example, the radius of the micelle may be measured using a dynamic light scattering (DLS) experiment.
as §1, §2
Meanwhile, the size distributions of the micelles formed by the MNAs were measured using DLS, and the measurement results are shown in FIG. 17. The MNAs were used at a content of 1.0% by weight.

boron transporter (Bor1) = biological target: T1, boron transporter (Bor1) (Arabidopsis thaliana, UniProt Q8VYR7); assay: Structural stability and extraction of Bor1 by heat fluorescence size exclusion chromatography (hFSEC)
T1 construct: made in house; host or cells: Saccharomyces cerevisiae FGY217
T1 sequence (Q8VYR7 whole entry): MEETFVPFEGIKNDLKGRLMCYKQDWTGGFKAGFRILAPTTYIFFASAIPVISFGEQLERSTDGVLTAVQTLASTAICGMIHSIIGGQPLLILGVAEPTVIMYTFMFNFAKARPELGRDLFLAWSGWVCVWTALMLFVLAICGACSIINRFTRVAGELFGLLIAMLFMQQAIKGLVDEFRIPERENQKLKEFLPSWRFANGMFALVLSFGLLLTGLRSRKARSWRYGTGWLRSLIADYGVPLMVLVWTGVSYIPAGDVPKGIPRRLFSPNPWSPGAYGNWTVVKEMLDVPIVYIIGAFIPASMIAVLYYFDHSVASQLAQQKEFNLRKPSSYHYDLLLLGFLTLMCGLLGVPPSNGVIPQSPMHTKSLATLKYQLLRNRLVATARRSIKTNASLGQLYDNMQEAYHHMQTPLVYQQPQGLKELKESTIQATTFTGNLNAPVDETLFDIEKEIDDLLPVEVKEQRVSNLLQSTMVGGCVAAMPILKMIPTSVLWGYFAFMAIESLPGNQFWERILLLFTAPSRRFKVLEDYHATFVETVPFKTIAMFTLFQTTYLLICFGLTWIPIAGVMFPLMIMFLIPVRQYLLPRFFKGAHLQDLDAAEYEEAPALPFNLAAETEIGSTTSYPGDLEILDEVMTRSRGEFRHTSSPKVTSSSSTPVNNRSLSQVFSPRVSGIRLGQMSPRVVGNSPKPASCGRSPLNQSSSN
Experimental: An experiment for measuring the structural stability of a boron transporter (Bor1) by the MNAs was performed. The structural stability of Bor1 was measured using heat fluorescence size exclusion chromatography (hFSEC), and the concentrations of the MNAs and DDM were CMC plus 0.04% by weight. Specifically, Bor1 of Arabidopsis thaliana was expressed in Saccharomyces cerevisiae FGY217 cells as a fusion protein having a C-terminal GFP-His tag. The cells were grown in a -URA medium supplemented with 0.1% glucose. Expression of proteins was induced by adding 2% galactose, and the cells were then cultured at 20° C. for 18 hours. Here, the cell culture was carried out according to the method described in the article by D. Drew et al. (Nat. Protoc. 2008, 3, 784-798.). The cells were collected to prepare membranes, and the cell collection was carried out according to the method described in the article by J. Leung et al. (Protein Expr. Purif. 2010, 72, 139-146.). The membranes including the Bor1-GFP fusion protein were diluted with phosphate-buffered saline (PBS, pH 7.4) until the final concentration of the total proteins reached 2.8 mg/mL. In this case, 1% by weight of DDM or 1% by weight of MNA (MNA-1, MNA-2, MNA-3, MNA-4, MNA-5, MNA-6, or MNA-7) was added to the PBS. Samples were incubated for an hour while shaking at 4° C., and insoluble materials were then removed by centrifugation at 14,000 g and 4° C. for an hour. The supernatant including the dissolved protein samples was heated at 40° C. for 10 minutes, and the strongly aggregated proteins were removed by centrifugation at 14,000 g and 4° C. for 10 minutes. 200 μL of the supernatant of the samples was injected into a Superose 6 10/300 column equilibrated with 20 mM Tris (pH 7.5), 150 mM NaCl, and 0.03% DDM. Each of elution fractions was collected in 200 μL fractions at a retention volume of 6.4 mL (e.g., 6.4 mL after elusion) in a clear bottom 96-well plate. The GFP fluorescence of each of the fractions was measured at an excitation wavelength of 470 nm and an emission wavelength of 512 nm.

[3] = biological target: T2, human β2 adrenergic receptor (β2AR) (Homo sapiens, UniProt P07550); assay: Bimane fluorescence spectra of mBBr-β2AR with ISO or ISO plus G-protein; type: biochemical; conditions: combination of ISO and G-protein, FIG. 20
T2 construct: made in house
T2 sequence (P07550 whole entry): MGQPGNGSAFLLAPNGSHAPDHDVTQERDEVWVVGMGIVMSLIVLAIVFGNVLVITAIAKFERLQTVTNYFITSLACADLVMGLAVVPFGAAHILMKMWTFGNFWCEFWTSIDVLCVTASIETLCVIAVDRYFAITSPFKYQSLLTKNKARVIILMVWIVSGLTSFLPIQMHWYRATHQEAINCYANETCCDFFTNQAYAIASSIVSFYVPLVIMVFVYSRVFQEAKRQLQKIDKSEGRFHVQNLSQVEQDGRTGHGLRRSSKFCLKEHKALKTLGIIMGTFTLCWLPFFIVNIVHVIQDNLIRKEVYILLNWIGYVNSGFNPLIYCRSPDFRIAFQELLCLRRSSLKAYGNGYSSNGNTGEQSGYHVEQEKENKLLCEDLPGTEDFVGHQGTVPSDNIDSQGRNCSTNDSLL
Experimental: Experiments for measuring the structural stabilities of a human β2 adrenergic receptor (β2AR), a G-protein-coupled receptor (GPCR), in the MNAs were performed.
Experiments for measuring the structural changes and structural stabilities of mBBr-β2AR by the MNAs (MNA-5, MNA-6, MNA-7) and DDM according to the presence or absence of a full agonist (isopreoterenol (ISO)) or a combination of ISO and G-protein were performed.
Specifically, β2AR dissolved in 0.1% DDM was purified according to the method disclosed in the article by D. M. Rosenbaum et al. (Science 2007, 318, 1266-1273) and then concentrated to a concentration of approximately 1 mg/mL. […] The mBBr-labeled β2AR was cultured for 30 minutes, and the mBBr spectra thereof were measured and compared to the spectra of the mBBr-labeled receptor dissolved in 0.1% DDM. The fluorescence of the mBBr-labeled β2AR was measured at 370 nm and thus determined by emission from 430 to 510 nm at 1-nm increments with 1 nm s^−1 integration using a Spex FluoroMax-3 spectrofluorometer (Jobin Yvon Inc.) which was run in a photon counting mode through a 4-nm emission bandwidth pass. mBBr dissolved in DDM was used as the positive control. […]

[4] = biological target: T2, human β2 adrenergic receptor (β2AR); assay: mBBr-β2AR bimane spectra at detergent concentration below CMC; type: biochemical; conditions: detergent diluted to a fiftieth of its CMC, compared to DDM, FIG. 21
Experimental: Experiments for comparing the structural changes of the β2AR protein by the MNAs and DDM at a concentration below CMCs of the amphipathic molecules were performed.
Specifically, 0.5 μL of a non-ligand mBBr-labeled receptor dissolved at 50 μNI in a 20×CMC concentration of MNA-5, MNA-6, or MNA-7 was diluted with 500 μL of an NH buffer (20 mM HEPES pH 7.5, and 100 mM NaCl). The proteins were cultured for 30 minutes, and the bimane spectra thereof were measured. The receptor dissolved in 0.1% DDM was diluted with the NH buffer, and used as the control. Data was presented as an average of three separate experiments performed in triplicate.

CMC [1]: ~0.004 mM | Rh (nm), hydrodynamic radius of micelles [2]: 3.0 nm and 3.0 ± 0.01 nm | Bor1 extraction efficiency (boron transporter (Bor1); 1% by weight detergent, membranes with Bor1-GFP): 60% | level of Bor1 protein aggregation after heat treatment (boron transporter (Bor1); hFSEC, 40° C. for 10 minutes, FIG. 18): lower level of Bor1 aggregation than DDM | stability of β2AR [4]: secured for a prolonged period of time
SMILES: CCCCCCCCCCCCO[C@H]([C@@H](OCCCCCCCCCCCC)[C@H](CO[C@@H]1OC(CO)[C@@H](O)C(O)C1O)O[C@@H]1OC(CO)[C@@H](O)C(O)C1O)[C@H](CO[C@@H]1OC(CO)[C@@H](O)C(O)C1O)O[C@@H]1OC(CO)[C@@H](O)C(O)C1O (stereo partly drawn) [MNA-5]
bimane fluorescence spectra of mBBr-β2AR [3]: slightly higher fluorescence intensity than DDM
